Measurements taken from patent US8633245B2, “PAI-1 inhibitor” (Institute of Medicinal Molecular Design, Inc., priority 2008, dated 2014).

Biological target: T1, recombinant human PAI-1 (Homo sapiens, UniProt P05121)
T1 construct: purchased Molecular Innovations, Inc
Assay: Test Example 1: human PAI-1 inhibitory activity (tPA fluorogenic substrate, pH 7.5 Tris buffer)
Format: biochemical
Details: Tris buffer
Protocol: 50 mM Tris, 150 mM NaCl, 10 μg/ml BSA, 0.01% Tween80 (SIGMA-ALDRICH Corporation)

T1 sequence (P05121 24-402): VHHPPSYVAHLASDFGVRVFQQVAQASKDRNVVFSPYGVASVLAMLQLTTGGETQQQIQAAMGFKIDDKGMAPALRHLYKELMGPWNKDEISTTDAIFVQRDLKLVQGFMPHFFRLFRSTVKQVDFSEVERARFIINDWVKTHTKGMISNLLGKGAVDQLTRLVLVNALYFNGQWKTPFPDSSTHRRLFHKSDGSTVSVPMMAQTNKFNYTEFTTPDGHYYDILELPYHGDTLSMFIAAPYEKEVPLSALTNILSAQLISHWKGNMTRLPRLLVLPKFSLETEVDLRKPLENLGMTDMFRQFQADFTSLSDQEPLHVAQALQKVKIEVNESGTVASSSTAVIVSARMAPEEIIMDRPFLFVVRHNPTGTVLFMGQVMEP

Inhibition Rate of PAI-1 Activity (%) (Compound Concentration 5 μM) | Inhibition Rate of PAI-1 Activity (%) (Compound Concentration 10 μM) | Inhibition Rate of PAI-1 Activity (%) (Compound Concentration 25 μM) | Inhibition Rate of PAI-1 Activity (%) (Compound Concentration 0.5 μM) | Inhibition Rate of PAI-1 Activity (%) (Compound Concentration 1 μM) | Compound
71 | 91 |  |  |  | CCCCCOc1ccc(N(CCCCc2ccccc2)C(=O)C(=O)O)cc1-c1ccc(OC(F)(F)F)cc1 [Compound 244]
68 | 89 |  |  |  | CC(C)(C)Oc1ccc(N(CCCCc2ccccc2)C(=O)C(=O)O)cc1-c1ccc(OC(F)(F)F)cc1 [Compound 249]
20 | 54 | 93 |  |  | CC(C)(C)c1ccc(CN(C(=O)C(=O)O)c2ccccc2Oc2ccc(OC(F)(F)F)cc2)cc1 [Compound 153]
67 |  |  | 0 | 14 | CC(C)(C)c1ccc(Oc2ccc(-c3ccc(OC(F)(F)F)cc3)cc2CCC(=O)O)c(CCC(=O)O)c1 [Compound 542]
67 | 95 | 91 |  |  | CC(C)(C)c1ccc(CN(C(=O)C(=O)O)c2ccc(Sc3ccc(OC(F)(F)F)cc3)cc2)cc1 [Compound 621]
45 | 71 | 95 |  |  | O=C(O)C(=O)N(CCCCCc1ccccc1)c1ccc(-c2ccc(OC(F)(F)F)cc2)cc1 [Compound 228]
86 | 84 |  |  |  | CC(C)(C)c1ccc(CN(C(=O)C(=O)O)c2ccc(N3CCCCC3)c(-c3ccc(OC(F)(F)F)cc3)c2)cc1 [Compound 217]
61 |  |  | 4 | 14 | CC(C)(C)c1ccc(COc2cc(-c3ccc(OC(F)(F)F)cc3)cc(O)c2OCC(=O)O)cc1 [Compound 546]
27 | 50 | 88 |  |  | O=C(O)C(=O)N(CCCCc1ccccc1)c1ccc(-c2ccc(OC(F)(F)F)cc2)cc1 [Compound 225]
41 | 77 | 95 |  |  | CC(C)(C)c1ccc(CN(C(=O)C(=O)O)c2ccccc2OCc2ccc(OC(F)(F)F)cc2)cc1 [Compound 620]

Further lines, the compound ahead of its results:

Compound | Inhibition Rate of PAI-1 Activity (%) (Compound Concentration 5 μM) | Inhibition Rate of PAI-1 Activity (%) (Compound Concentration 10 μM) | Inhibition Rate of PAI-1 Activity (%) (Compound Concentration 25 μM) | Inhibition Rate of PAI-1 Activity (%) (Compound Concentration 0.5 μM) | Inhibition Rate of PAI-1 Activity (%) (Compound Concentration 1 μM)
COc1ccccc1-c1ccc(OCc2ccc(C(C)(C)C)cc2)c(/C=C/C(=O)O)c1 [Compound 55] | 21 | 46 | 95 |  | 
CC(C)(C)c1ccc(COc2cccc(Oc3ccc(OC(F)(F)F)cc3)c2/C=C/C(=O)O)cc1 [Compound 85] | 40 | 61 | 85 |  | 
CC(C)(C)c1ccc(COc2ccc(-c3ccccc3OC(F)(F)F)cc2CCC(=O)O)cc1 [Compound 66] | 52 | 80 | >99 |  | 
Cc1cc(C)cc(CN(C(=O)C(=O)O)c2ccc(-c3ccc(OC(F)(F)F)cc3)cc2)c1 [Compound 123] | 27 | 62 |  |  | 
O=C(O)C(=O)N(Cc1ccc(Cl)cc1)c1ccc(-c2ccc(OC(F)(F)F)cc2)cc1 [Compound 124] | 22 | 49 |  |  | 
CC(C)(C)c1ccc(Oc2cc(-c3ccc(OC(F)(F)F)cc3)ccc2OC(F)(F)C(=O)O)cc1 [Compound 120] | 59 | 87 | 98 |  | 
CCCCc1ccc(-c2ccc(OCc3ccc(C(C)(C)C)cc3)c(CCC(=O)O)c2)cc1 [Compound 43] | 29 | 66 | 94 |  | 
CC(C)(C)c1ccc(COc2ccc(-c3ccc(OC(F)(F)F)cc3)cc2C=CC(=O)O)cc1 [Compound 4] | 84 | 78 |  |  | 
